Results taken from PubChem BioAssay (NCI).
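48-hour exposure; five concentrations; linearly interpolated endpoints. GI50 = concentration required for 50% inhibition of growth. TGI denotes the concentration required for complete inhibition of growth.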

How the values were obtained:
Test in all cases: DTP human tumour cell line panel, 48 h
SK-MEL-5 melanoma = system: SK-MEL-5 melanoma
MDA-MB-231 breast = system: MDA-MB-231 breast
HCT-15 colon = system: HCT-15 colon
M14 melanoma = system: M14 melanoma
T-47D breast = system: T-47D breast
HOP-62 NSCLC = system: HOP-62 NSCLC
CAKI-1 renal = system: CAKI-1 renal
SN12C renal = system: SN12C renal
EKVX NSCLC = system: EKVX NSCLC
SNB-75 CNS = system: SNB-75 CNS
NCI-H522 lung = system: NCI-H522 lung
CCRF-CEM leukemia = system: CCRF-CEM leukemia
UACC-257 melanoma = system: UACC-257 melanoma
NCI/ADR-RES ovarian = system: NCI/ADR-RES ovarian
NCI-H226 lung = system: NCI-H226 lung
DU-145 prostate = system: DU-145 prostate
SR leukemia = system: SR leukemia
ACHN renal = system: ACHN renal
NCI-H460 lung = system: NCI-H460 lung
OVCAR-4 ovarian = system: OVCAR-4 ovarian
HT29 colon = system: HT29 colon
SK-OV-3 ovarian = system: SK-OV-3 ovarian
KM12 colon = system: KM12 colon
A549 NSCLC = system: A549 NSCLC
HOP-92 NSCLC = system: HOP-92 NSCLC
TK-10 renal = system: TK-10 renal
OVCAR-5 ovarian = system: OVCAR-5 ovarian
MDA-MB-435 = system: MDA-MB-435
HS 578T breast = system: HS 578T breast

CS(=O)(=O)c1nccc(-c2c(-c3ccc(F)c(OCCc4ccc(F)cc4)c3)nc3sccn23)n1
GI50 (SK-MEL-5 melanoma): 16.5 µM
TGI (SK-MEL-5 melanoma): 30.8 µM
GI50 (MDA-MB-231 breast): 17 µM
TGI (MDA-MB-231 breast): 37.8 µM
GI50 (HCT-15 colon): 12.5 µM
TGI (HCT-15 colon): 27.8 µM
GI50 (M14 melanoma): 16.6 µM
TGI (M14 melanoma): 30.9 µM
GI50 (T-47D breast): 2.7 µM
TGI (T-47D breast): 7.57 µM
GI50 (HOP-62 NSCLC): 15.3 µM
TGI (HOP-62 NSCLC): 31.2 µM
GI50 (CAKI-1 renal): 13.5 µM
TGI (CAKI-1 renal): 26.4 µM
GI50 (SN12C renal): 13.8 µM
TGI (SN12C renal): 30.6 µM
GI50 (EKVX NSCLC): 12.7 µM
TGI (EKVX NSCLC): 25.4 µM
GI50 (SNB-75 CNS): 11.4 µM
TGI (SNB-75 CNS): 23.6 µM
GI50 (NCI-H522 lung): 11.7 µM
TGI (NCI-H522 lung): 28.1 µM
GI50 (CCRF-CEM leukemia): 14.2 µM
TGI (CCRF-CEM leukemia): 33.2 µM
GI50 (UACC-257 melanoma): 12.3 µM
TGI (UACC-257 melanoma): 25.4 µM
GI50 (NCI/ADR-RES ovarian): 17.4 µM
TGI (NCI/ADR-RES ovarian): 39 µM
GI50 (NCI-H226 lung): 14.5 µM
TGI (NCI-H226 lung): 35 µM
GI50 (DU-145 prostate): 2.07 µM
TGI (DU-145 prostate): 4.32 µM
GI50 (SR leukemia): 12.3 µM
TGI (SR leukemia): 36.9 µM
GI50 (ACHN renal): 2.74 µM
TGI (ACHN renal): 7.33 µM
GI50 (NCI-H460 lung): 4.25 µM
TGI (NCI-H460 lung): 16.3 µM
GI50 (OVCAR-4 ovarian): 14.9 µM
TGI (OVCAR-4 ovarian): 30.4 µM
GI50 (HT29 colon): 15.2 µM
TGI (HT29 colon): 30.6 µM
GI50 (SK-OV-3 ovarian): 13.5 µM
TGI (SK-OV-3 ovarian): 26.5 µM
GI50 (KM12 colon): 13 µM
TGI (KM12 colon): 28.5 µM
GI50 (A549 NSCLC): 16.1 µM
TGI (A549 NSCLC): 30.5 µM
GI50 (HOP-92 NSCLC): 4.7 µM
TGI (HOP-92 NSCLC): 18.8 µM
GI50 (TK-10 renal): 15.1 µM
TGI (TK-10 renal): 28.3 µM
GI50 (OVCAR-5 ovarian): 15.5 µM
TGI (OVCAR-5 ovarian): 30.4 µM
GI50 (MDA-MB-435): 15.9 µM
TGI (MDA-MB-435): 29.3 µM
GI50 (HS 578T breast): 12.5 µM
